According to patent EP0032564A1, “Pharmaceutical use of caroverine and/or salts of caroverine, as well as salts of caroverine with xanthine acid remainders and nicotinic acid remainder” (MEDICHEMIE AG, priority 1979, dated 1981):
Structures can show the parent of a compound that is named as a salt.

Columns and labels:
Thrombozytenaggregation [1] = assay: Collagen-induced platelet aggregation in platelet-rich plasma, turbidimetry; format: cell-based, Kaninchen
Excerpt: Thrombozytenreiches Plasma wurde aus citriertem Kaninchenblut gewonnen. Die Thrombozytenaggregation wurde durch Collagen aus Rinder- Achillessehnen induziert, worauf der Aggregations-Hemmeffekt durch optische Trübungsmessung (Turbidimetrie) untersucht und quantifiziert werden konnte.
Bei diesen Diagrammen handelt es sich um Aufnahmen des zeitlichen Verlaufes einer optischen Messgrösse als Mass eines durch das Präparat tretenden Lichtanteils, entsprechend einem reziproken Mass für den Agglutinations- oder Aggregationsgrad. Die verschiedenen Messkurven für je eine Wirksubstanz entsprechen unter- schiedlichen molaren Konzentrationen in Mikromol des Wirkstoffes als Parameter. Die erste Messkurve in Fig. 1 entspricht einem Kontroll-Leerversuch.

Thrombozytenaggregation [2] = assay: Collagen-induced platelet aggregation, same method on human blood preparations; format: cell-based, menschlichem Blut; details: same method as with rabbit plasma
Hunden = assay: Coronary sinus outflow, systemic blood pressure and heart rate in dogs; format: in vivo; details: dogs, 0,03-3,0 mg/kg, effect increases with dose (Fig. 4-6)
Procedure: Es wurde der coronare Sinus-Ausfluss(CSF), der System-Blutdruck (SEP) und die Herzfrequenz (HR) an Hunden untersucht. Für den coronaren Sinus-Ausfluss wurde die in Clin. Pharmacol. Physiol., 5, 107 - 115, 1978, Australien,beschriebene Untersuchungsmethode angewendet.
Zeitdiagramme der genannten Messgrössen SBP (mmHg), CSF (ml/min) und HR (min ) wurde für […] verschiedene Dosierungen von Caroverinfumarat, nämlich 0,03, 0,1, 0,3, 1,0 und 3,0 mg/kg (bezogen auf das Körpergewicht) aufgenommen. Die Diagramme für die drei erstgenannten Dosierungswerte sind in Fig. 4 und diejenigen für die beiden letztgenannten Dosierungswerte in Fig. 5 bzw. Fig. 6 wiedergegeben. Der Zuführungszeitpunkt der Wirksubstanz ist in den Diagrammen gemäss Fig. 4 durch das Zeichen "o" markiert, während in den Diagrammen gemäss Fig. 5 und 6 das Zuführungsintervall jeweils durch einen Horizontalstrich unterhalb der CSF-Messkurve angegeben ist.

[3] = Acute toxicity (LD50) in male mice; details: mouse, in vivo
Excerpt: Untersuchung der akuten Toxizität an männlichen Mäusen
Es wurden folgende Standard-Grenzwerte LDSO (mg/kg) ermittelt:
Toxizitätsuntersuchung an männlichen Mäusen

Herzfrequenz = assay: Clinical study: heart rate under stepwise i.v. dosing, treatment groups A, B, C; format: in vivo, Menschen
Excerpt: • a) Anzahl: je 6 Patienten der Gruppen A, B und C. Die Probandenzahl der Gruppe D hängt davon ab […] hoc finden. • b) Die […] des Prüfers. • c) Kontraindikationen […], die nicht für eine klinische Studie mit Ca-Antagonisten geeignet sind, oder unter […] leiden, die die Resultate […]. Die […] 10 und 5' vor Beginn der Medikation. […] Nach Beendigung der Medikation, Nachkontrolle in 10-[…] bis ca. 4 Stunden nach Beginn der Medikation. Abbruch der Medikation bei: • 1) AV-Block 1. […] In einem ersten Schritt wurden die Zeitreihen (Herzfrequenz-Mittelwerte und Streuungen) je Behandlungsgruppe einzeln berechnet und graphisch dargestellt (s. Abbildung und […], die […] auch […] und der 3 Stunden Nachbeobachtung unterscheiden. Es ist ebenfalls festzuhalten, dass die Werte zu Beginn der Applikation gegenüber den Vorwerten durchwegs erhöht sind. Um die Herzfrequenz-Verläufe […] zu […] Differenzen der Mittelwerte zu jedem […] zu den Vorwerten als auch zum Wert bei […] und […] - unter […] und […] - auf Signifikanz geprüft.

[4] = test system: anemische Decerebrationsstarre; assay: Inhibition of anemic decerebrate rigidity in rats, method of Fukuda et al.; format: in vivo, Wister-Ratten; details: male rats, i.v.; for ED50: Rattus norvegicus, iv, read-out: Dosis für 50%ige Inhibierung; for ED50 / Zeit für 50%ige Erholung: anemic decerebrate rigidity
Excerpt: Die Untersuchungen wurden ausgeführt nach der Methode von Fukuda et al. (Japanese Journal of Pharmacology, Band 24, Seiten 810 - 813, 1974).
Es wurden männliche Wister-Ratten mit einem Köpergewicht von 280 - 380 g verwendet. Die Tiere wurden mit Aether betäubt und am Rücken befestigt. Nach Freilegen der Luft- und Speiseröhre sowie der beiderseitigen, gemeinsamen Carotisarterien wurde die Luftröhre kanüliert und die Speiseröhre abgetrennt. Das Hinterhauptbein wurde durch Abschaben der anhängenden Muskulatur freigelegt. Nach beidseitigem Abbinden der gemeinsamen Carotisarterien wurde im mittleren Teil des Hinterhauptbeines eine Oeffnung von 5 mm Durchmesser trepaniert, um die Basilararterie sichtbar zu machen. Die dura mater wurde längs der Basilararterie durchschnitten und letztere mit einem Coagulator ausgeätzt. Unmittelbar nach Beendigung dieser Massnahmen wurde die Anästhesie unterbrochen. Innerhalb von 30-min entwickelte sich Starre, und es trat eine deutliche Streckung der Extremitäten, des Nackens und des Schwanzes ein. Die Streckung der Vordergliedmassen wurde mit einem Dehnungsmessstreifen erfasst. 50 min nach Erholung von der Betäubung wurden in Salzlösung aufgelöste Pharmaka durch eine in die Oberschenkelvene eingeführte Kanüle intravenös zugeführt. Die verwendeten Pharmaka waren Caroverinfumarat und Referenz-Agenzien, nämlich Mephenesin und Tolperison-Hydrochlorid. Das Ergebnis nach Zuführung von 2 mg/kg Caroverinfumarat sind in der nachstehend eingefügten Tabelle wiedergegeben.

[5] = test system: Patienten mit Arrhythmia absoluta
Procedure: Bei insgesamt 6 Patienten (5♀, 1 ♂) mit Arrhythmia absoluta wurden innerhalb 3 - 5 Min. 200 mg Caroverinfumarat i.v. verabreicht. […] Mittleres Alter der Probanden war 65 (+6/-11) Jahre. Registriert wurden EKG (Frequenz) und Blutdruck (Riva-Rocci) bis max. 13 Minuten nach Injektionsbeginn. Die Min.-Frequenz ermittelte sich aus 10 aufeinanderfolgenden QRS-Komplexen.

Ratten = assay: Diuretic effect in rats, method of Lipschitz et al. (Na excretion score); format: in vivo; details: 20 mg/kg p.os, quotient of Na excretion after test substance to Na excretion of control
Excerpt: Diese Untersuchung an Ratten wurde nach der Methode von Lipschitz et al., j.p.e.t. 79, 97-110, 1954, durchgeführt.
Der errechnete Score entspricht einem Quotienten aus Na-Ausscheidungen nach der Testsubstanz durch Na-Ausscheidung des Kontroll-Leerwertes.
Die Untersuchung an Ratten wurde wie unter 1. durchgeführt. Für den diuretischen Wirkungs-Score gilt gleiches.

[6] = test system: isolierte, nach Langendorff perfundierte Meerschweinchenherz; assay: Isolated Langendorff-perfused guinea pig heart: coronary flow, contraction amplitude, heart rate; set-up: species or system Meerschweinchen; details: for Herzfrequenz: in all experiments; for Coronardurchfluss: single doses Caroverin 1-1000 ug, Theophyllin 10-1000 ug, 1000 Theophyllin about equal to 100 Caroverin
Excerpt: Meerschweinchen wurden durch Genickschlag getötet, der Thorax eröffnet, der Herzbeutel aufgeschnitten, die Aorta mit einem Faden angeschlungen und in der pars ascendens angeschnitten. Nach Einbinden einer Glaskanüle in die Aorta wurde die aorta pulmonalis eröffnet und anschliessend das Coronargefässsystem durch die Aortenkanüle unter leichten Druck mit einer Spitze durchgespült. Nach Dulchirennung aller anhängenden Gefässe wurde das Herz an der Aortenkanüle in die feuchte Kammer einer modifizierten Langendorff-Apparatur gehängt und mit carbogengesättigter Tyrodelösung von 37^uC mit einem Druck von 55 cm H20 perfundiert. An der Herzspitze wurde eine Serre fine angebracht, die über einen Faden mit einem zweiarmigen Hebel verbunden war, der die Kontraktionsamplitude auf einem Russkymographen aufzeichnete. Alle Herzen waren mit 4 g belastet. Der Schreibhebel passierte bei seinen Ausschlägen die Lichtschranke einer Fotozelle. Dadurch konnte die Herzfrequenz über einen Totalisator (nach FLEISCH, Firma B. Braun, Melsungen) registriert werden. Die aus dem rechten Vorhof frei abfliessende Perfusionslösung tropfte auf einen elektrischen Kontakt. Die Tropfenzahl wurde mittels eines zweiten Totalisators aufgezeichnet,und nach Eichung in ml/min der Coronardurchfluss bestimmt.
Nach Fertigstellung der Präparate wurde bis zum Versuchsbeginn 45 Min. gewartet. Nach dieser Zeit hatten Kontaktionsamplitude, Frequenz und Coronardurchblutung ein konstantes Niveau erreicht.
Caroverin wurde in Einzeldosen von 1, 10, 100 sowie 1000 ug verabreicht. Theophyllin wurde in Dosen von 10, 100 sowie 1000 ug gegeben. In allen Versuchen wurden Caroverin und Theophyllin abwechselnd verabreicht, wobei jeweils eine Zeitspanne von 5 Min. zwischen zwei Einzelinjektionen lag. Alle Injektionsvolumina betrugen 0.1 ml.
Die Effekte der Substanzen wurden ermittelt,indem in jedem Versuch bei jeder Einzeldosis die maximalen Zu- bzw. Abnahmen der entsprechenden Parameter gegenüber dem jeweiligen Ausganswert bestimmt und diese Einzeleffekte gemittelt wurden. Statistische Signifikanzberechnungen erfolgten nach dem t-Test (student's-Test).

Ca^++-Einstrom = assay: Isolated guinea pig papillary muscle: intracellular action potentials and isometric mechanograms; set-up: species or system Meerschweinchen
Excerpt: Die Aktionspotentiale […] an ein und derselben Myocardfaser gewonnen. Die einzelnen Konzentrationen kamen jeweils für die Dauer von 40 Minuten zur Anwendung.

[7] = test system: K^+-Kontraktur isolierter Coronararterienstreifen; assay: K+ contracture of isolated pig coronary artery strips; set-up: species or system Schwein
Excerpt: Partielle Restitution der mechanischen Spannungsentwicklung durch Extra-Calcium.

[8] = test system: glatten Coronar-Muskulatur; assay: k-Strophanthin-induced tone of pig coronary smooth muscle; set-up: species or system Schwein; details: higher concentration of k-Strophanthin, partial restitution by raised extracellular Ca++ (Fig. 15)
Excerpt: Teilweise Restitution des Coronartonus durch Steigerung der extra-cellulären Ca^++-Konzentration.

Maus = assay: Acute toxicity in the mouse (new caroverine salts); format: in vivo; details: for Akute Toxizität, observation: in vivo; for Letale Dosis: mouse, i.p.
Procedure: Letale Dosis: • 200 mg/kg i.p..

[9] = test system: Meerschweinchen-Lungenpräparat; assay: Bronchodilator effect on guinea pig lung preparation (perfusion flow rate); details: in vitro, 100 µg/ml
Agonisten (Atropin) = assay: Anticholinergic effect in vitro, guinea pig; set-up: species or system Meerschweinchen; details: 10 µg/ml
Procedure: In vitro ergab sich am Meerschweinchen mit einer Dosis von 10 µg/ml eine mehr als 80 %ige Hemmung des verwendeten Agonisten (Atropin).

[10] = group B, ca. 70 min after start of application
[11] = group C, 2 1/2 to 3 h after start of application

With CCN(CC)CCn1c(=O)c(Cc2ccc(OC)cc2)nc2ccccc21 [Caroverinfumarat] the Aggregations-Hemmeffekt (Thrombozytenaggregation [1]; rabbit platelet-rich plasma, collagen from bovine Achilles tendon, several micromolar concentrations (Fig. 1-3), intensity between Benzyclanfumarat and Aspirin) was “eindeutigen Hemmungseffekt”, the Aggregations-Hemmeffekt (Thrombozytenaggregation [2]) was “Aehnliche Ergebnisse” and the “Herzfrequenz (HR)” value (Hunden) was “Herabsetzung der Herzfrequenz”. For the same compound, the “System-Blutdruck (SBP)” value (Hunden) was “Herabsetzung des System-Blutdrucks”, the “coronarer Sinus-Ausfluss (CSF)” value (Hunden) was “Rasch zunehmende und langsam abklingende Zunahme des coronaren Sinus-Ausflusses” and the LD50 ([3]; intravenous) was 39 mg/kg. For the same compound, the LD50 ([3]; ip, intraperitoneal) was 138 mg/kg, the LD50 ([3]; oral) was 800 mg/kg and the “mittlere Herzfrequenz, % of value before application” value (“mittlere Herzfrequenz, %” for short) (Herzfrequenz; group A (heart-healthy), end of application after 40 min) was 86%. For the same compound, the “mittlere Herzfrequenz” value (Herzfrequenz; group A (heart-healthy), end of application after 40 min, 20 mg i.v. then 10 mg every 4 min up to 120 mg, baseline 72/Min.) was 62 min⁻¹, the “mittlere Herzfrequenz, %” value (Herzfrequenz; group A, 2 h after start of application) was 79% and the “mittlere Herzfrequenz” value (Herzfrequenz; group A, 2 h after start of application, lasting to end of 4 h observation) was 57 min⁻¹. The “mittlere Herzfrequenz, %” value (Herzfrequenz; group B (coronary heart disease), end of application) was 90%, the “mittlere Herzfrequenz” value (Herzfrequenz; group B (coronary heart disease), end of application, baseline 77/Min.) was 69 min⁻¹ and the “mittlere Herzfrequenz” value (Herzfrequenz; [10]) was 65 min⁻¹. For the same compound, the “mittlere Herzfrequenz, %” value (Herzfrequenz; [10]) was 84%, the “mittlere Herzfrequenz, %” value (Herzfrequenz; group C (diseased conduction system), end of application) was 86% and the “mittlere Herzfrequenz” value (Herzfrequenz; group C (diseased conduction system), end of application, baseline 66/Min.) was 57 min⁻¹. The “mittlere Herzfrequenz” value (Herzfrequenz; [11]) was 54 min⁻¹, the “mittlere Herzfrequenz, %” value (Herzfrequenz; [11]) was 82% and the ED50 [4] was 1.5 mg/kg. For the same compound, the “Zeit für 50%ige Erholung” value [4] was over 30 min, the “anemische Decerebrationsstarre” value ([4]; stronger and longer lasting than Tolperison-Hydrochlorid and Mephenesin) was “unverzüglich aufgehoben” and the Vorhofflimmer-Frequenz ([5]; 6 patients, 200 mg i.v.) was “ohne messbare Veränderung”. The “rhythmisierender Effekt” value ([5]; 6 patients, 200 mg i.v.) was “nicht nachgewiesen”, the “maximale systolische Blutdruckabfall” value ([5]; 6 patients, 200 mg i.v. within 3-5 min) was 29,3 (+ 8,2/-9,3) % and the “diastolische Blutdruckabfall” value ([5]; mean of 6 patients, 200 mg i.v. within 3-5 min) was 26,6 (+ 10,9/-11,6) %. The “maximale Frequenz-Abfall im Vergleich zum Ausgangswert” value ([5]; mean of 6 patients, 200 mg i.v. within 3-5 min, up to 13 min after start of injection) was 26,6 (+ 7,2/-4,7) %.
In the case of CC(=O)S[C@@H]1CC2=CC(=O)CC[C@]2(C)[C@H]2CC[C@@]3(C)[C@@H](CC[C@@]34CCC(=O)O4)[C@H]12 [Spironolacton, reference compound], the “diuretischer Wirkungs-Score” value (Ratten) is reported as 3.6.
For CCN(CC)CCn1c(=O)c(Cc2ccc(OC)cc2)nc2ccccc21 [Caroverin, 1-(2-diäthylaminoäthyl)-3-(p-methoxybenzyl)-1,2-dihydroquinoxalon-2], the Herzfrequenz ([6]; 100 µg) was “langanhaltenden frequenzsenkenden Effekt”, the Kontraktionsamplitude ([6]; 100 µg, p < 0.01) was “verminderte die Kontraktionsamplitude signifikant” and the Coronardurchfluss [6] was “dosisabhängige, coronardurchflusssteigernde Wirkung”. For the same compound, the “elektrische Parameter Ca^++-getragener Aktionspotentiale (AP-Amplitude, max. Aufstrichsteilheit, AP-Dauer) und zugehörige Mechanogramme” value (Ca^++-Einstrom; about the same concentration range (10 mg/l)) was “hemmt”, the “Blockade des Ca^++-Einstroms während der Erregung” value (Ca^++-Einstrom; electrically stimulated isolated guinea pig papillary muscle, 10 mg Caroverin/l (Fig. 12)) was about 50% and the “transmembranäre Na- und K^+-Fluxe” value (Ca^++-Einstrom; isolated guinea pig papillary muscle, 10 mg Caroverin/l) was “ohne die transmembranären Na - und K^+-Fluxe zu reduzieren”. For the same compound, the inhibition at 0.25 µg/mL ([7]; Sus scrofa, pig, 0,25 mg Caroverin/l (Fig. 13 and 14), read-out: elektromechanische Entkoppelung K^+-depolarisierter Coronararterienstreifen) was about 50%, the “K^+-Kontraktur isolierter Coronararterienstreifen” value ([7]; pig, rising concentrations 0,05, 0,1 and 0,5 mg/l, partial restitution by extra calcium (Fig. 13)) was “Hemmungen der K^+-Kontraktur” and the “K^+-Kontraktur isolierter Coronararterien-Streifen” value ([7]; pig, rising concentrations 1,0, 2,0 and 5,0 mg/l, partial restitution by extra calcium at 1 mg/l (Fig. 14)) was “Hemmung der K^+-Kontraktur”. For the same compound, the “tonussteigernde Effekte von k-Strophanthin” value [8] was “Neutralisation der tonussteigernden Effekte”.
With CCN(CC)CCn1c(=O)c(Cc2ccc(OC)cc2)nc2ccccc21 [Caroverin-Theophyllinat] the “Akute Toxizität, observation” value (Maus; 300 mg/kg) was “keine Auffälligkeiten”, the “Akute Toxizität, observation” value (Maus; ip, 100 mg/kg) was “leichte Muskelrelaxation” and the “Letale Dosis” value (Maus) was 200 mg/kg. For the same compound, the “diuretischer Wirkungs-Score” value (Ratten; 20 mg/kg) was 2.8, the Perfusions-Fliessrate [9] was “eindeutige Zunahme der Perfusions-Fliessrate” and the “Hemmung des verwendeten Agonisten (Atropin)” value (Agonisten (Atropin)) was over 80%.
In the case of Cc1ccc(C(=O)C(C)CN2CCCCC2)cc1 (centres unmarked) [Tolperison-Hydrochlorid], the ED50 [4] is reported as 4 mg/kg and the “Zeit für 50%ige Erholung” value [4] is reported as “ca. 10 min”.
For CCN(CC)CCn1c(=O)c(Cc2ccc(OC)cc2)nc2ccccc21 [Caroverin-Nicotinat], the inhibition at 10 µg/mL (Thrombozytenaggregation [1]; Oryctolagus cuniculus, Platelet, in vitro, rabbit, 10 mcg/ml, read-out: Hemmung der collagen-induzierten Plättchenaggregation) was 100%, the “Akute Toxizität, observation” value (Maus; 300 mg/kg) was “keine Auffälligkeiten” and the “Akute Toxizität, observation” value (Maus; ip, 100 mg/kg) was “Abnahme des Muskeltonus in den Extremitäten, sowie eine leichte Abnahme des Haltegriffes”. The “Letale Dosis” value (Maus) was 200 mg/kg, the “diuretischer Wirkungs-Score” value (Ratten; 20 mg/kg) was 2.6 and the Perfusions-Fliessrate [9] was “eindeutige Zunahme der Perfusions-Fliessrate”. The “Hemmung des verwendeten Agonisten (Atropin)” value (Agonisten (Atropin)) was over 80%.
In the case of Cc1ccccc1OCC(O)CO (centres unmarked) [Mephenesin], the ED50 [4] is reported as 25 mg/kg and the “Zeit für 50%ige Erholung” value [4] is reported as “ca 13 min”.
For Cn1c(=O)c2[nH]cnc2n(C)c1=O [Theophyllin, reference compound], the Herzfrequenz ([6]; 1000pg as printed) was “die Herzfrequenz vorübergehend steigerte”, the Kontraktionsamplitude ([6]; doses used (10, 100, 1000 ug)) was “keine signifikanten Aenderungen der Kontraktionsamplitude” and the Coronardurchfluss [6] was “steigernde Wirkung auf den Coronardurchfluss”.
